Assay: population PK model and simulations of flat versus BSA-based dosing of tamibarotene
Parameters: species or system human
Conditions: population PK analysis of prior study, 6 mg/m2/day in 2 divided doses
Procedure: The dose and regimen used in a prior study (6 mg/m^2/day in 2 divided doses) were based on the dose and regimen approved in Japan for the treatment of APL. […] Based on this analysis, the fixed dosing regimens described herein, including the 6 mg BID flat dosing regimen, are expected to provide similar PK exposures compared to the 6 mg/m^2/day (in 2 divided doses) regimen used in the prior study.
A population PK model was developed using patient characteristics, and we assessed the impact of weight on drug clearance. Simulations were conducted to assess the performance of “flat” versus BSA-based dosing. Simulated AUC (area-under-the-curve) from the model was used to establish relationship of exposure with efficacy and safety; we analyzed exposure and achievement of CR/CRi and exposure with adverse events equal to or greater than those of grade 3.

Tamibarotene
association of body size with clearance: not significantly associated

Reference: patent US20240091183A1 (Syros Pharmaceuticals, Inc., priority 2021, published 2024)
